# Measured values reported in patent publication US10894770B2, “Fullerene derivative and n-type semiconductor material” (DAIKIN INDUSTRIES, LTD., priority 2015, dated 2021).
# Assays:
# [1] = LUMO level estimated from cyclic voltammetry (CV); assay type: physicochemical; settings: for E1/2^1, half-wave potential of the first reduction wave: CV, 3-electrode system, chlorobenzene:acetonitrile=5:1, n-Bu4NPF6 0.1 mol/L; for LUMO: ELUMO=−(E1/2^1+4.8) eV, from CV
# Procedure: The LUMO level can be measured by a method according to Karakawa et al., Journal of Materials Chemistry A, 2014, vol. 2, p. 20889.
# The LUMO level of the fullerene derivatives obtained in Synthesis Examples and the control compounds was estimated from the measured values in cyclic voltammetry (CV).
# The measurement was performed in accordance with the experiment section in M. Karakawa et al., Journal of Material Chemistry A, 2014, vol. 2, p. 20889. • Measurement Device: BAS CV-50W Voltammetric Analyzer • Measurement Solvent: Chlorobenzene:Acetonitrile=5:1 • Supporting Electrolyte: n-Bu4NPF6 concentration 0.1 mol/L
# The LUMO level is calculated from the half-wave potential E1/2^1 (Fc/Fc^+ benchmark) of the first reduction wave measured by CV (3-electrode system) using the following equation. ELUMO=−(E1/2^1+4.8)ev
# [2] = Solubility measured with a toluene solution (absorbance of the supernatant of a supersaturated solution); assay type: physicochemical; settings: room temperature, from absorbance and molar extinction coefficient
# Procedure: The solubility in toluene at room temperature can be determined from the absorbance in accordance with the Beer-Lambert law. First, a molar extinction coefficient is determined using a fullerene derivative toluene solution of a known concentration. A predetermined amount of the supernatant of a supersaturated fullerene derivative toluene solution is weighed, and the absorbance of this solution is measured. The concentration is calculated from the following equation. C=A/εd wherein C is a concentration; A is an absorbance; ε is a molar extinction coefficient; and d is a cell length for absorbance measurement (1 cm)
# The solubility of each fullerene derivative was calculated from the absorbance measured with an ultraviolet-visible absorptiometer.
# In advance, the absorbance of the fullerene derivatives of a predetermined concentration was measured to determine the molar extinction coefficient of each compound.
# A supersaturated toluene solution of a fullerene derivative was prepared. A predetermined amount of the supernatant of this solution was taken out, and its absorbance was measured.
# From the measured absorbance value and the molar extinction coefficient, the concentration of the supernatant of the supersaturated toluene solution was determined.
Structure (SMILES),"E1/2^1, half-wave potential of the first reduction wave [1] [V vs Fc/Fc^++]",LUMO [1] [eV],Solubility in Toluene [2] [%]
CCCCCCC1N(c2ccccc2)C(c2ccccc2)C23c4c5c6c7c8c9c(c%10c%11c2c2c%12c4c4c%13c5c5c7c7c8c8c%14c9c%10c9c%10c%11c2c2c%11c%12c4c4c%12c%13c5c5c7c7c8c8c%14c9c9c%10c2c2c%11c4c4c%12c5c7c5c8c9c2c45)C613 (stereo not drawn) [Compound 1],−1.16,−3.64,0.5
CCCCC(CC)CC1N(c2ccccc2)C(c2ccccc2)C23c4c5c6c7c8c9c(c%10c%11c2c2c%12c4c4c%13c5c5c7c7c8c8c%14c9c%10c9c%10c%11c2c2c%11c%12c4c4c%12c%13c5c5c7c7c8c8c%14c9c9c%10c2c2c%11c4c4c%12c5c7c5c8c9c2c45)C613 (stereo not drawn) [Compound 2],−1.17,−3.63,1.0
COCCOCCOCC1N(c2ccccc2)C(c2ccccc2)C23c4c5c6c7c8c9c(c%10c%11c2c2c%12c4c4c%13c5c5c7c7c8c8c%14c9c%10c9c%10c%11c2c2c%11c%12c4c4c%12c%13c5c5c7c7c8c8c%14c9c9c%10c2c2c%11c4c4c%12c5c7c5c8c9c2c45)C613 (stereo not drawn) [Compound 3],−1.17,−3.63,0.5
CCCCOCC1N(c2ccccc2)C(c2ccccc2)C23c4c5c6c7c8c9c(c%10c%11c2c2c%12c4c4c%13c5c5c7c7c8c8c%14c9c%10c9c%10c%11c2c2c%11c%12c4c4c%12c%13c5c5c7c7c8c8c%14c9c9c%10c2c2c%11c4c4c%12c5c7c5c8c9c2c45)C613 (stereo not drawn) [Compound 4],−1.17,−3.63,0.5
CCCCCCC1N(c2ccccc2)C(CC(CC)CCCC)C23c4c5c6c7c8c9c(c%10c%11c2c2c%12c4c4c%13c5c5c7c7c8c8c%14c9c%10c9c%10c%11c2c2c%11c%12c4c4c%12c%13c5c5c7c7c8c8c%14c9c9c%10c2c2c%11c4c4c%12c5c7c5c8c9c2c45)C613 (stereo not drawn) [Compound 8],,,7.0
"C1=CC2=c3ccc4c5ccc6c7ccc8c9ccc%10c%11c%12c%13c%14c(c3c4c3c5c6c4c7c8c(c%119)c%13c4c%143)C23C(c2ccccc2)N(c2ccccc2)CC%123C=%101 (stereo not drawn) [Control Compound 1, reference compound]",−1.13,−3.67,0.3
"CCCCCCC1N(c2ccccc2)CC23C4=c5ccc6c7ccc8c9ccc%10c%11ccc%12c%13c(c%14c%15c2c5c6c2c7c8c5c9c%10c(c%13%11)c%14c5c%152)C13C=%12C=C4 (stereo not drawn) [Control Compound 2, reference compound]",−1.14,−3.66,1.8
"COC(=O)CCCC1(c2ccccc2)C23c4c5c6c7c8c9c(c%10c%11c2c2c%12c4c4c%13c5c5c7c7c8c8c%14c9c%10c9c%10c%11c2c2c%11c%12c4c4c%12c%13c5c5c7c7c8c8c%14c9c9c%10c2c2c%11c4c4c%12c5c7c5c8c9c2c45)C613 (stereo not drawn) [[60]PCBM, [6,6]-phenyl-C61-butyric acid methyl ester, reference compound]",−1.13,−3.67,
